Results as given in patent US8821847B2, “Perfume compositions” (Givaudan Nederland Services B.V., priority 2006, dated 2014).

System: P. vulgaris NCTC4175
Test: Urease assay: effect of fragrance on ammonia production (pH of urea-supplemented microbial suspension)
Assay type: cell-based
Details: result in words
Experimental: Urease Assay—Estimation of Fragrance and Fragrance Ingredients Effect on Ammonia Production The method adopted was based on the rapid method devised by C. A. Stuart, Elizabeth van Stratum and Robert Rustigan Further Studies on Urease Production by Proteus and Related Organisms J. Bacteriol. 1945, 49:437-444. SSR Medium: 380 ml distilled water, 364 mg KH2PO4, 380 mg Na2HPO4, 8 g Urea, 40 mg Yeast extract, 20 ml 0.02% phenol red indicator, pH 6.8, solution filter sterilised. Culture: Liquid culture of P. vulgaris NCTC4175 was prepared by adding loops of fresh culture from solid media (Tryptone Soya Agar) to sterile 0.1% special peptone solution. Absorbance of culture was adjusted to be OD610 nm>2.3 Fragrances were aseptically prepared at 2500 ppm in medium in duplicate (5 ml volumes) using solubiser Synperonic 91/10 at ratio of 1:2 fragrance: solubiliser. In addition 5 ml volumes of positive and negative controls were prepared. Positive controls and all test solutions were inoculated by adding 200 μl of prepared culture, mixed and incubated for 24 hours @37° C. No culture was added to the negative growth controls. Initially solutions were orange in colour. Urease activity can be noted by the production of a purple/red colour. The degree of urease activity/ammonia production was assessed by pH electrode.

Question: With CCC(=O)N(CC)c1cccc(C)c1 [N-ethyl-N-(3-methylphenyl)propananoide, N-ethyl-N-(3-methylphenyl)propanamide] as the molecule, how does the urease inhibitory efficacy read?
Answer: highly active
